Earlier results, collected in patent publication US9980903B2, “Gastric retentive oral dosage form with restricted drug release in the lower gastrointestinal tract” (Depomed, Inc., priority 2001, dated 2018).

Conditions: presently available immediate release dosage form

time at which maximum serum concentration is attained after dosing: 1 to 2 h
Structure (SMILES): O=C(O)c1cn(C2CC2)c2cc(N3CCNCC3)c(F)cc2c1=O [Ciprofloxacin, 1-cyclopropyl-6-fluoro-1,4-dihydro-4-oxo-7-(1-piperazinyl)-3-quinolinecarboxylic acid]
